CC(=O)Nc1ccc(O)cc1
solubility (mole fraction)
Conditions	298.15 K	303.15 K	308.15 K	313.15 K	318.15 K	323.15 K	328.15 K	333.15 K
in transcutol	0.111	0.118	0.126	0.134	0.144	0.153	0.166	0.178
in water	0.0016	0.0019	0.0023	0.0027	0.0033	0.004	0.0047	0.0055
